Counter-ions that a name gives are not always drawn.
How the values were obtained:
[1] = test system: tetracycline inducible gene expression system (CHO-K1 Tet-IGF1 cells); assay: DOX-induced IGF-1 release from CHO-K1 Tet-IGF1 cells (ELISA); assay type: cell-based, Chinese hamster; conditions: encapsulated and unencapsulated CHO-K1 Tet-IGF1 cells, 24 hours
Description: Chinese hamster ovary cells (CHO-K1 Tet-On, Clontech Laboratories, Mountain View, Calif.), stably transfected to express the transactivator protein (rtTA) for a tetracycline inducible gene expression system, were cultured at 37° C. and 5% CO2 in DMEM supplemented with 10% tetracycline-free FBS (Clontech), 1% penicillin/streptomycin (Invitrogen, Carlsbad, Calif.), and 200 μg/mL G418 (Sigma-Aldrich). All cell counting was done using Trypan Blue exclusion and the COUNTESS® Automated Cell Counter (Invitrogen). […]
The quantity of human IGF-1 from each supernatant sample was determined using ELISA (R&D Systems, Minneapolis, Minn.) and SPECTRAMAX® Absorbance plate reader (Molecular Devices, Sunnydale, Calif.). All samples were run in triplicate and amount released was normalized to one million viable cells per sample as counted at the end of each study.
Modified and unmodified cells were plated in 6-well tissue culture plates at a density of 3×10^5 cells per well (n=6 per cell type). […] At the end of the study, cells were trypsinized and counted.
Modified encapsulated and unencapsulated cells were plated into 12-well tissue culture plates. […] At the end of the study, cells were trypsinized and counted.
Encapsulated modified and unmodified cells were plated in 12-well tissue culture plates at an equal density per well and cultured at 32° C. […] On day 10, capsules were solubilized and cells were counted.

[2] = test system: CHO-K1 Tet-IGF1 cells; assay: Co-culture of CHO-K1 Tet-IGF1 cells with DOX loaded PLGA microspheres or bolus DOX, IGF-1 ELISA; assay type: cell-based, Chinese hamster; conditions: total 2 μg DOX over 24 hours, unencapsulated and encapsulated cultures
Description: Cells were encapsulated and encapsulated cell count and viability were determined as described in Examples 1 and 2. Microencapsulated and unencapsulated CHO-K1 Tet-IGF1 cells were co-cultured with DOX loaded PLGA microspheres to assess DOX-inducible IGF-1 synthesis and delivery. Approximately 5×10^5 encapsulated or 5×10^4 unencapsulated cells were plated per well in 12-well plates. After incubating cultures for 24 hours at 37° C., medium was completely removed from each well and 2 mL fresh media containing one of the following was added to each well (n=3): 1 μg/mL DOX (Clontech), 1.6 mg of DOX loaded PLGA microspheres, 1.6 mg of unloaded PLGA control microspheres, or no DOX. The mass of spheres used in these studies was calculated to release a total of 2 μg of DOX after 24 hours of incubation as determined by the results of the cumulative in vitro release. Cultures were incubated for another 24 hours, at which time the supernatant from each culture was removed and stored at −20° C. for later measurement. For unencapsulated cultures, cells were trypsinized and counted using Trypan Blue exclusion. For encapsulated cultures, cells were collected via alginate solubilization prior to counting. IGF-1 was quantified as described in Example 2.

C[C@H]1c2cccc(O)c2C(=O)C2=C(O)[C@]3(O)C(=O)C(C(N)=O)=C(O)[C@@H](N(C)C)[C@@H]3[C@@H](O)[C@@H]21 [DOX, doxycycline hydrochloride]
DOX concentration giving detectable IGF-1 release [1]: ≥ 0.125 µg/mL
IGF-1 synthesis and delivery after 24 hours [2]: induced

— US20130189366A1, “DRUG DELIVERY SYSTEMS AND METHODS OF USE” (Brown University, priority 2012, published 2013)
